Results from ChEMBL document CHEMBL1201862, “PubChem BioAssay data set” (2004).
Calls of active or inactive are those of the source.

Assays:
[1] = target: T1, High affinity choline transporter 1 (Homo sapiens, UniProt Q9GZV3); assay: human choline transporter blockers, potency – cell-based, 5-point CRC, membrane potential dye, dose response (AID 504840); format: functional
T1 sequence (Q9GZV3 whole entry): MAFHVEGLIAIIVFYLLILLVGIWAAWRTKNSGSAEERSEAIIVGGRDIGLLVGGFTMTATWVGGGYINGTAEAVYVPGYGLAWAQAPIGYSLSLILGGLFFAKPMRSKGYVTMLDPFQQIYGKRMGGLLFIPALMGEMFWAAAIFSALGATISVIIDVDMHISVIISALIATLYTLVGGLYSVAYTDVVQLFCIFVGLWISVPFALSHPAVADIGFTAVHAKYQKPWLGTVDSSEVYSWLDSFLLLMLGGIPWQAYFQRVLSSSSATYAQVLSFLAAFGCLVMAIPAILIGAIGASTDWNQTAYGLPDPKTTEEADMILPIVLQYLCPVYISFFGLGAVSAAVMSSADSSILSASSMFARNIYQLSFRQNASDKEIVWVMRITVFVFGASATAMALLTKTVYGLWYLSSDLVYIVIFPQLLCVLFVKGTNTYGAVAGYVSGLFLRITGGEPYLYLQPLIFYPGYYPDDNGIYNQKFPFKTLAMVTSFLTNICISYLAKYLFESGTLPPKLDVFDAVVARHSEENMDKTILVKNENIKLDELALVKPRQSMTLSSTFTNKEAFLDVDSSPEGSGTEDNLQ

[2] = target: T1, High affinity choline transporter 1; assay: human choline transporter blockers, potency – cell-based, 10-point CRC, membrane potential dye, dose response (AID 588401); format: functional;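 also: membrane potential dye fluorescence of choline-evoked depolarization via CHT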
[3] = target: T2, Heat shock factor protein 1 (Mus musculus, UniProt P38532); assay: enhancement of HSF1-driven luciferase signal – cell-based, NIH3T3, luminescence, dose retest, confirmation (AID 435004); format: functional;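 also: stress induced by proteasome inhibitor MG132 added 30 min after compound; luciferase reporter driven by HSF1 response element in NIH3T3 cells; actives raise luminescence as potentiators of the MG132 stress response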
T2 sequence (P38532 whole entry): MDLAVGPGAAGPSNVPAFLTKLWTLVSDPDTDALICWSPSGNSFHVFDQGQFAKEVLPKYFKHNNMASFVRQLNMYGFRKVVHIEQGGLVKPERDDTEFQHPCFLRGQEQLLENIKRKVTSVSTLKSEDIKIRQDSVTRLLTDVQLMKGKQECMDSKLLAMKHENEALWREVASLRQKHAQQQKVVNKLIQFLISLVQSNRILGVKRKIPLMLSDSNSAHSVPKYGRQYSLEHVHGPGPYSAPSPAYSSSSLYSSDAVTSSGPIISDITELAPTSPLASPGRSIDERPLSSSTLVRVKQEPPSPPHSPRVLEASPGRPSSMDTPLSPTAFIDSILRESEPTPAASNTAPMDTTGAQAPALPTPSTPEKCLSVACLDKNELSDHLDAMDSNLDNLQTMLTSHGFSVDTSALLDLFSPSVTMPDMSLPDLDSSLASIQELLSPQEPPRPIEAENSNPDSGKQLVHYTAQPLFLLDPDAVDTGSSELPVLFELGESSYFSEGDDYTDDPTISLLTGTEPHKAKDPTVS

[4] = Luminescence Cell-Based Dose Retest to Confirm Inhibitors of Cancer Stem Cells. [Related pubchem assays (depositor defined):AID2717, AID2721]; format: functional; settings: Homo sapiens
Melanocortin receptor 4 = Melanocortin receptor 4 (Homo sapiens, UniProt P32245); assay: inhibitors of MC4R cAMP signaling – cell-based, TR-FRET, biased antagonists, dose response (AID 602298); format: functional;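 also: antagonist potency against agonist-stimulated cAMP production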
Melanocortin receptor 4, sequence (P32245 whole entry): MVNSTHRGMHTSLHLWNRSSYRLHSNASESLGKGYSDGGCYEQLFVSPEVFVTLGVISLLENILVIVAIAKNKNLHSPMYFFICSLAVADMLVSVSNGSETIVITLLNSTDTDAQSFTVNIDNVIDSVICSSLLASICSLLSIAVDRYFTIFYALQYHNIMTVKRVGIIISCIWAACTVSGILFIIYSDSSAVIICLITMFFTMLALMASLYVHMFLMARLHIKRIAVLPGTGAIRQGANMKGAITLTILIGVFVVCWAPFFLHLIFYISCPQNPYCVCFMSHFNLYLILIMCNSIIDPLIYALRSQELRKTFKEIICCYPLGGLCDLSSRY

Protein RecA = target: T3, Protein RecA (Mycobacterium tuberculosis, UniProt P9WHJ3); assay: Fluorescence Cell-Free Homogeneous Dose Retest to Identify Inhibitors of RecA-Intein Splicing Activity. [Related pubchem assays (depositor defined):AID2097, AID2223, AID489010, AID492950]; format: functional
T3 sequence (P9WHJ3 whole entry): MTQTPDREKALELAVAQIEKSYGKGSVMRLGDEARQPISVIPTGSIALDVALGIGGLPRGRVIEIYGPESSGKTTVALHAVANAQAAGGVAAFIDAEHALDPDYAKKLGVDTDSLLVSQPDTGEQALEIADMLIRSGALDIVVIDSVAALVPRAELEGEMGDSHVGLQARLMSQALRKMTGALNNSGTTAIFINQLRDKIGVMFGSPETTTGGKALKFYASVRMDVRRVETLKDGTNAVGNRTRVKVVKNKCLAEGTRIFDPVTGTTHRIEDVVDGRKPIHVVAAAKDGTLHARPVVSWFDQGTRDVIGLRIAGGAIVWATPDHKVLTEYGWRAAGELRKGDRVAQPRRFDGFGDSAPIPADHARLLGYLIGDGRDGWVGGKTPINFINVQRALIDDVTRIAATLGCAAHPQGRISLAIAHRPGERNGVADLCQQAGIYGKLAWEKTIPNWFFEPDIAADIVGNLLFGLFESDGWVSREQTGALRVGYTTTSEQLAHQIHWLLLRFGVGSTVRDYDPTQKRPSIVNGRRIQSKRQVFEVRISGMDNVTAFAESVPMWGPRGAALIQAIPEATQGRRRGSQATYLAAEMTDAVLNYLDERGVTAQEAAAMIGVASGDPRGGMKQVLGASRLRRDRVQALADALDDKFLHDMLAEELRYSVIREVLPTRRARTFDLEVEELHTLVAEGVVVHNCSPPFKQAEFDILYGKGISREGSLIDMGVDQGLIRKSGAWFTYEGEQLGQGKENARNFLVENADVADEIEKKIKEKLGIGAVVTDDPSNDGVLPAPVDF

[5] = target: T4, Replicative DNA helicase DnaB (Mycobacterium tuberculosis, UniProt P9WMR3); assay: DnaB intein splicing inhibitors, dose response, biochemical, cell-free fluorescence (AID 449749); format: functional
T4 sequence (P9WMR3 whole entry): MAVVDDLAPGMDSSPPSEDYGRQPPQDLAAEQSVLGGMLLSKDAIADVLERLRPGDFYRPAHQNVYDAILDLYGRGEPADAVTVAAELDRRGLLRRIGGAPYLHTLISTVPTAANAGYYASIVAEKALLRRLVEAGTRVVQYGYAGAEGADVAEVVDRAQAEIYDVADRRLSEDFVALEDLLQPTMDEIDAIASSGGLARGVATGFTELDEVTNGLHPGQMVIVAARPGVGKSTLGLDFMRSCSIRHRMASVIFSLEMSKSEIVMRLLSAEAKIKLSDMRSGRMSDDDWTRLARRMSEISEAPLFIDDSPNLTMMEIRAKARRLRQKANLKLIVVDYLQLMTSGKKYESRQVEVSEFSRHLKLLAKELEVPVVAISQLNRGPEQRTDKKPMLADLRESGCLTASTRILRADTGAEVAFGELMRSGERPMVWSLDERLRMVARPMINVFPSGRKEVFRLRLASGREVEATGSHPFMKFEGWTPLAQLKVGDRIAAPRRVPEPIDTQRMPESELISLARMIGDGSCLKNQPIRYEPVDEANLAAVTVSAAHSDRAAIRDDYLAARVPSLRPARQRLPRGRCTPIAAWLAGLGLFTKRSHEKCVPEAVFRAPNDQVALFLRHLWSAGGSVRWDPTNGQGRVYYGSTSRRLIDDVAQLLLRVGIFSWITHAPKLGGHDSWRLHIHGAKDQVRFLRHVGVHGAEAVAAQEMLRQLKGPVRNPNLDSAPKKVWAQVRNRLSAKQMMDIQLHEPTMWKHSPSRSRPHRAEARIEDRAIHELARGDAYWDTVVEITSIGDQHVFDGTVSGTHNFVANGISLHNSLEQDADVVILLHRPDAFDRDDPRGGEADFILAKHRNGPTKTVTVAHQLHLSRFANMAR

[6] = cAMP pathway inhibition in counterscreen cell line – TR-FRET cAMP detection, counter-screen for MC4R biased antagonist project, dose response (AID 602305); format: functional, cell-based;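 also: U2OS cells stimulated with forskolin near its EC80 as the cAMP inducer; potency is for inhibition of forskolin-stimulated cAMP signaling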
[7] = reduction of Shn3 3'UTR-driven luciferase in osteoblasts – cell-based, Clone20 osteoblasts, firefly luciferase, cherry-picked, dose response (AID 624132); format: functional;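 also: firefly luciferase luminescence from reporter carrying the Shn3 3'UTR in osteoblasts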
Protein Wnt-3a = Protein Wnt-3a (Mus musculus, UniProt P27467); assay: antagonism of Wnt3a pathway luciferase reporter – Wnt-LIGHT cells, luminescence, selectivity assay for Gli-SUFU antagonist project, dose response (AID 651570); format: functional; settings: read-out: IC50_Mean;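 also: Wnt-LIGHT reporter cells stimulated with conditioned medium from Wnt3a-producing cells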
Protein Wnt-3a, sequence (P27467 whole entry): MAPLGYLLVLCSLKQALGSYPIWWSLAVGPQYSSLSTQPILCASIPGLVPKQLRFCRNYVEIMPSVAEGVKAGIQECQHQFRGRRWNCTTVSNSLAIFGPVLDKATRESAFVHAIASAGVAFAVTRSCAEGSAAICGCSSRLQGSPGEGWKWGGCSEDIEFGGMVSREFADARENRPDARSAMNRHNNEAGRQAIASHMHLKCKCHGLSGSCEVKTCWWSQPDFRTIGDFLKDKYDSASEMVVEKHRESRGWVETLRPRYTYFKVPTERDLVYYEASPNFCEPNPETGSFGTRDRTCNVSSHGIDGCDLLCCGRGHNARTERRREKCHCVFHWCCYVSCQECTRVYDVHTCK

[8] = non-specific 3'UTR reporter inhibition in Clone20-Shn3RL – cell-based, Renilla luciferase, cherry-picked, counter-screen for Shn3 inhibitor project, dose response (AID 624133); format: functional
[9] = loss of viability in HepG2 cells – cell-based, CellTiter-Glo, cherry-picked, cytotoxicity control for Shn3 inhibitor project, dose response (AID 624134); format: functional
[10] = HPDE-C7 pancreatic duct cell viability loss – fluorescence, HTS (AID 430); format: functional, cell-based; settings: Homo sapiens
[11] = viability loss of HPDE-C7K cells – cell-based, fluorescence, HTS, primary screen (AID 431); format: functional; settings: Homo sapiens
[12] = bead-based luminescence quenchers, dual-tagged ARNT – biochemical, AlphaScreen, cherry-pick, artefact control for ARNT-TACC3 interaction inhibitor project, dose response (AID 651705); format: functional;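 also: AlphaScreen bead proximity signal that flags compounds interfering with the detection technology; potency reflects signal decrease which marks the compound as an assay artifact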
[13] = target: T5, Apoptotic protease-activating factor 1 (Homo sapiens, UniProt O14727); assay: SAR analysis of small molecule Activators of Apaf-1 in a Fluorescent assay.; format: functional; settings: read-out: EC50_Mean;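 also: caspase-3 cleavage of fluorogenic Rh110 DEVD substrate downstream of apoptosome activation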
T5 sequence (O14727 whole entry): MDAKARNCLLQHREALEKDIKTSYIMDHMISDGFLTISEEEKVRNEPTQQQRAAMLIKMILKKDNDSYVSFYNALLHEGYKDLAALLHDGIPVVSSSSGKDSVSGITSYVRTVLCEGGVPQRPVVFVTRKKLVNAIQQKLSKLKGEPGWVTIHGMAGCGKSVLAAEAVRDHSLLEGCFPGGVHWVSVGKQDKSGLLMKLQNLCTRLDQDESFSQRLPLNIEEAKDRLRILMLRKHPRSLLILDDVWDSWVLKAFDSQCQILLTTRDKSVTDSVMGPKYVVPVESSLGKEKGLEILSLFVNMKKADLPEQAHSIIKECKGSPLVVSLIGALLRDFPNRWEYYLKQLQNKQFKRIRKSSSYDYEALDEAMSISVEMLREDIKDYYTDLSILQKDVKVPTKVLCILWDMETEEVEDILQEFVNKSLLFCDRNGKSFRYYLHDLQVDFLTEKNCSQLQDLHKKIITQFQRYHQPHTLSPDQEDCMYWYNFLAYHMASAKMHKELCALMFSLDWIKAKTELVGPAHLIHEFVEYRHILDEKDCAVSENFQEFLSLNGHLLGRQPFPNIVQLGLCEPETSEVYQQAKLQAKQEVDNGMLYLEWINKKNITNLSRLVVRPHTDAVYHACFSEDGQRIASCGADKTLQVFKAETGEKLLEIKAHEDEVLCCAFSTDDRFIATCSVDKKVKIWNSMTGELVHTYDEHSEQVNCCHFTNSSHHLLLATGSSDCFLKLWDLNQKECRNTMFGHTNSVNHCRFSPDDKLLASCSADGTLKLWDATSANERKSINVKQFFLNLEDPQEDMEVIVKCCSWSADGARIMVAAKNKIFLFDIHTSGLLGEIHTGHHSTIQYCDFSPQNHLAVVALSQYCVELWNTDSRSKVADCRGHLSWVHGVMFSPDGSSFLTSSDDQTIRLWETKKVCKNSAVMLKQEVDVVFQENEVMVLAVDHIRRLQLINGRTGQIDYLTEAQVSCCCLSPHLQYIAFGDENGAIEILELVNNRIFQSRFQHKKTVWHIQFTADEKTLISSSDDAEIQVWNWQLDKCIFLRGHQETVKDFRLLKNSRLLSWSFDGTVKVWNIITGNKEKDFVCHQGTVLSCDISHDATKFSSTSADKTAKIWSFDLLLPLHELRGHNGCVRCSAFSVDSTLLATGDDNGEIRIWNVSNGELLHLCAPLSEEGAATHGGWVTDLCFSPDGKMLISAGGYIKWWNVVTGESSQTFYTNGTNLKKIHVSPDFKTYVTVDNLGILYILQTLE

## CC(C)(C)NCC(O)c1cc(O)cc(O)c1 (stereo not given)
[1]
  IC50: 0.0841 µM (active)
[2]
  IC50: 0.0142 µM (active)

## O=[N+]([O-])c1ccc(CSc2nnc3ccccn23)cc1
[1]
  IC50: 4.29 µM (active)
[2]
  IC50: 0.8 µM (active)

## O=C(C[S+]([O-])c1ccc(C(F)(F)F)cc1[N+](=O)[O-])Oc1ccccc1 (stereo not given)
[3]
  EC50: 22.7 µM (active)
[4]
  AC50: 3.71 µM (active)
Melanocortin receptor 4
  IC50: 13.5 µM (inactive)
Protein RecA
  EC50: 4.59 µM (active)
[5]
  AC50: 10.4 µM (active)
[6]
  IC50: > 64.6 µM (inactive)
[1]
  IC50: 12.3 µM (active)

## Cc1ccc(-n2nc3ccc(NC(=S)NC(=O)/C=C/c4ccco4)cc3n2)cc1
Melanocortin receptor 4
  IC50: 55.6 µM (inactive)
[6]
  IC50: > 64.6 µM (inactive)

## COc1ccc(CNCC(O)COc2cccc3c2OC(C)(C)C3)cc1 (stereo not given)
[7]
  AC50: 1.68 µM (active)
Protein Wnt-3a
  IC50: 3.22 µM (active)
[8]
  AC50: 1.57 µM (active)
[9]
  AC50: 49.4 µM (active)

## CCN(CC)S(=O)(=O)c1cc(C(=O)Nc2nncs2)c(Cl)cc1Cl
[1]
  IC50: 7.64 µM (active)
[10]
  EC50: 13.5 µM (active)
[11]
  EC50: > 20 µM (not active)
[2]
  IC50: 6.21 µM (active)

## COc1ccc(CN(C)Cc2nc(Cc3cccc(F)c3)no2)c2cccnc12
Protein Wnt-3a
  IC50: 2.18 µM (active)

## Nc1nc(O)nc(Nc2ccccc2)c1N=O
[12]
  AC50: 111 µM (active)

## COc1ccc(C2=N[C@H](C(=O)O)CO2)cc1C(F)(F)F
[13]
  EC50: > 100 µM (inactive)

## CC(CC(F)(F)F)C(=O)O (stereo not given)
[13]
  EC50: > 100 µM (inactive)
